Measurements: patent publication US20210000912A1, “Compositions And Methods For Prophylaxis Or Treatment Of Pain” (Interk Peptide Therapeutics Limited, priority 2017, published 2021)
Entries after “also recorded” stand apart in the source; their conditions may differ.

Tests used:
[1] = system: CFA-injected mice; test: CFA inflammatory pain model, incapacitance testing
[2] = system: CFA-injected mice; test: Grip strength testing in CFA study; assay type: in vivo, C57Bl/6 mice; conditions: intra-peritoneal, CFA study
Procedure: Forepaw grip strength was determined using a grip strength meter (DFIS-2 series digital force gauge, Columbus Instruments, Columbus, Ohio). The animals' forelimbs were placed on a horizontal bar connected to a force gauge. The animal was the gently pulled away from the bar and the peak force required for a release was recorded. Each mouse was tested 3 times, with a 1 min inter-trial interval (Martinez-Huenchullan, S. F., et al., “Utility and reliability of non-invasive muscle function tests in high-fat-fed mice”. Experimental Physiology, 2017. 102(7): p. 773-778). The average peak tension (g), and tension normalised to body weight were compared.

CN1CC[C@]23c4c5ccc(O)c4O[C@H]2[C@@H](O)C=C[C@H]3[C@H]1C5 [morphine]
effectiveness in incapacitance test, morphine versus IK01400, pooled data ([1]; first 30 minutes after injection): more effective
hyperactivity ([1]; mice, intra-peritoneal): observed to induce hyperactivity
effectiveness in incapacitance test, morphine versus IK01400 (8.6 mg/kg) ([1]; second hour after administration): less effective than IK01400; also recorded: reduced
grip strength compared to vehicle control [2]: increased grip strength
